Test results: patent publication US8470787B2, “Hydrates of erythromycin salts, preparation and use thereof” (priority 2008, dated 2013)

Experiments:
[1] = accelerated stability test (sealed vial, 30° C., HPLC content and related substances); format: physicochemical
Procedure: The hydrates of erythromycin salts according to the present invention can be stably stored. A sample of the above hydrates was sealed in a vial, and an accelerated stability test was conducted at 30° C. and changes of the content and related substances were measured by a HPLC method (C18 reverse phase column, 0.01M KH2PO4-acetonitrile (60:40) as the mobile phase, detective wavelength: 215 nm, column temperature: 35° C., flow rate: 1.0 ml/min) (upon different hydrates of erythromycin salts, such as crystalline hydrates of erythromycin thiocyanate, the pH of the mobile phase can be adjusted and KH2PO4 can be changed into NaH2PO4, the detective wavelength can be changed into 210 nm, and the column temperature can be set at 35-55° C., such as 50° C. for analysis and measurement). […] As compared to the anhydrous of erythromycin salt, the hydrates of erythromycin salts according to the present invention have a lower hygroscopicity, i.e., has a better stability of hygroscopicity, which facilitates the package and storage thereof, or is a more advantageously stable form for storage relative to the anhydrous.

Anaerobe = test: antibacterial activity, tube double dilution method, clinically obtained bacteria; format: cell-based
Procedure: (§1) The antibacterial activities of the hydrates of erythromycin salts are determined by culturing clinically obtained bacteria and measuring in accordance with pharmacological test methods (the tube double dilution method), and the results are shown in the following tables 9, 10, 11 and 12.

Bacillus fragilis = test: as above; format: cell-based; conditions: for MIC50 / MIC90: 15 strains; for MIC: range over 15 strains
Procedure: as §1

[2] = test system: Streptococcus hemolyticus; test: as above; format: cell-based; conditions: for MIC50 / MIC90: 16 strains; for MIC: range over 16 strains
Procedure: as §1

Propionibacterium = test: as above; format: cell-based; conditions: for MIC50 / MIC90: 18 strains; for MIC: range over 18 strains
Procedure: as §1

Neisseria gonorrhoeae = test: as above; format: cell-based; conditions: for MIC50 / MIC90: 16 strains; for MIC: range over 16 strains
Procedure: as §1

Bacillus influenzae = test: as above; format: cell-based; conditions: for MIC50 / MIC90: 17 strains; for MIC: range over 17 strains
Procedure: as §1

Pneumococcus = test: as above; format: cell-based; conditions: for MIC50 / MIC90: 18 strains; for MIC: range over 18 strains
Procedure: as §1

[3] = test system: Staphylococcus epidermidis; test: as above; format: cell-based; conditions: 21 strains
Escherichia coli = test: as above; format: cell-based; conditions: 21 strains
Staphylococcus aureus = test: as above; format: cell-based; conditions: 26 strains
Streptococcus viridan = test: as above; format: cell-based; conditions: 23 strains
[4] = spray-dried product

SMILES | Assay (%) ([1]; month 0) | Form ([1]; month 0) | Assay (%) ([1]; month 1) | Form ([1]; month 1) | Assay (%) ([1]; month 2) | Form ([1]; month 2) | Assay (%) ([1]; month 3) | Form ([1]; month 3) | Assay (%) ([1]; month 6) | Form ([1]; month 6) | MIC50 (Bacillus fragilis) | MIC90 (Bacillus fragilis) | MIC (Bacillus fragilis) | MIC50 [2] | MIC90 [2] | MIC [2] | MIC50 (Propionibacterium) | MIC90 (Propionibacterium) | MIC (Propionibacterium) | MIC50 (Neisseria gonorrhoeae) | further results
CC[C@H]1OC(=O)[C@H](C)[C@@H](O[C@H]2C[C@@](C)(OC)[C@@H](O)[C@H](C)O2)[C@H](C)[C@@H](O[C@@H]2O[C@H](C)C[C@H](N(C)C)[C@H]2O)[C@](C)(O)C[C@@H](C)C(=O)[C@H](C)[C@@H](O)[C@]1(C)O.N#CS.O.O [erythromycin thiocyanate dihydrate] | 99.9% | off-white powder | 99.9% | off-white powder | 100.4% | off-white powder | 100.2% | off-white powder | 99.8% | off-white powder | 4 µg/mL | 16 µg/mL | 0.5 to 64 µg/mL | 0.06 µg/mL | 32 µg/mL | 0.03 to 32 µg/mL | 0.06 µg/mL | 0.12 µg/mL | 0.03 to 16 µg/mL | 0.25 µg/mL | MIC50 (Anaerobe; 16 strains): 2 µg/mL; MIC90 (Anaerobe; 16 strains): 16 µg/mL; MIC (Anaerobe; range over 16 strains): 0.06 to 64 µg/mL; MIC90 (Neisseria gonorrhoeae): 1 µg/mL; MIC (Neisseria gonorrhoeae): 0.06 to 2 µg/mL; MIC50 (Bacillus influenzae): 4 µg/mL; MIC90 (Bacillus influenzae): 8 µg/mL; MIC (Bacillus influenzae): 0.12 to 8 µg/mL; MIC50 (Pneumococcus): 0.06 µg/mL; MIC90 (Pneumococcus): 1 µg/mL; MIC (Pneumococcus): 0.03 to 0.5 µg/mL; MIC50 [3]: 16 µg/mL; MIC50 (Escherichia coli): 4 µg/mL; MIC50 (Staphylococcus aureus): 0.12 µg/mL; MIC50 (Streptococcus viridan): 0.06 µg/mL; MIC90 (Streptococcus viridan): 0.5 µg/mL
CC[C@H]1OC(=O)[C@H](C)[C@@H](O[C@H]2C[C@@](C)(OC)[C@@H](O)[C@H](C)O2)[C@H](C)[C@@H](O[C@@H]2O[C@H](C)C[C@H](N(C)C)[C@H]2O)[C@](C)(O)C[C@@H](C)C(=O)[C@H](C)[C@@H](O)[C@]1(C)O.O.O.O.O.O.O=C(O)[C@H](O)[C@@H](O)[C@H](O[C@@H]1O[C@H](CO)[C@H](O)[C@H](O)[C@H]1O)[C@H](O)CO [erythromycin lactobionate pentahydrate] | 99.9% | off-white powder | 100.2% | off-white powder | 99.8% | off-white powder | 100.1% | off-white powder | 99.9% | off-white powder | 4 µg/mL | 16 µg/mL | 0.5 to 64 µg/mL | 0.06 µg/mL | 32 µg/mL | 0.03 to 32 µg/mL | 0.06 µg/mL | 0.12 µg/mL | 0.03 to 16 µg/mL | 0.25 µg/mL | MIC90 (Neisseria gonorrhoeae): 1 µg/mL; MIC (Neisseria gonorrhoeae): 0.06 to 2 µg/mL; MIC50 (Bacillus influenzae): 4 µg/mL; MIC90 (Bacillus influenzae): 8 µg/mL; MIC (Bacillus influenzae): 0.12 to 8 µg/mL; MIC50 (Pneumococcus): 0.06 µg/mL; MIC90 (Pneumococcus): 1 µg/mL; MIC (Pneumococcus): 0.03 to 0.5 µg/mL; MIC50 [3]: 16 µg/mL; MIC50 (Escherichia coli): 4 µg/mL; potency [4]: 626 u/mg; MIC50 (Staphylococcus aureus): 0.12 µg/mL; MIC50 (Streptococcus viridan): 0.06 µg/mL; MIC90 (Streptococcus viridan): 0.5 µg/mL
CC[C@H]1OC(=O)[C@H](C)[C@@H](O[C@H]2C[C@@](C)(OC)[C@@H](O)[C@H](C)O2)[C@H](C)[C@@H](O[C@@H]2O[C@H](C)C[C@H](N(C)C)[C@H]2O)[C@](C)(O)C[C@@H](C)C(=O)[C@H](C)[C@@H](O)[C@]1(C)O.N#CS.O.O.O [erythromycin thiocyanate trihydrate] | 99.8% | off-white powder | 99.9% | off-white powder | 100.6% | off-white powder | 100.3% | off-white powder | 100.1% | off-white powder | – | – | – | – | – | – | – | – | – | – | –
